Each compound was assayed on IFNα-induced pSTAT5 (pY694) in CD3 positive cells of human whole blood (assay: IFNα-Induced STAT Phosphorylation in Human Whole Blood). Conditions: Homo sapiens, 1 h compound incubation, 1000 U/mL recombinant human IFNα A/D for 15 min, pSTAT5 in CD3 positive population, read-out: Human WB IFNα-Induced Stat Phosph. (IC50).
Type: cell-based
Description: IFNα-Induced STAT Phosphorylation in Human Whole Blood
After an hour long incubation with compound, human whole blood (drawn with either EDTA or ACD-A as anti-coagulant) was stimulated with 1000 U/mL recombinant human IFNα A/D (R&D Systems 11200-2) for 15 min. The stimulation was stopped by adding Fix/Lyse buffer (BD 558049). Cells were stained with a CD3 FITC antibody (BD 555916), washed, and permeabilized on ice using Perm III buffer (BD 558050). Cells were then stained with an Alexa-Fluor 647 pSTAT5 (pY694) antibody (BD 612599) for 30 min prior to analysis on the FACS Canto II. The amount of pSTAT5 expression was quantitated by median fluorescence intensity after gating on the CD3 positive population.
IFNα-Induced STAT Phosphorylation in Human Whole Blood Inhibition Data ND—no data available

Compared with `[2H]C([2H])([2H])NC(=O)c1nnc(NC(=O)C2CC2)cc1Nc1cccc(-c2nc([C@H](COC(C)=O)NC(C)=O)no2)c1OC` [Example 200], `[2H]C([2H])([2H])NC(=O)c1nnc(NC(=O)C2CC2)cc1Nc1cccc(-c2nc([C@H](C)NC(C)=O)no2)c1OC` [Example 183] is 2.2-fold higher in IC50: 760 nM for the first, 1680 nM for the second. The first is the more potent here.

Going from `[2H]C([2H])([2H])NC(=O)c1nnc(NC(=O)C2CC2)cc1Nc1cccc(-c2ncc(CC(=O)NCCOC)o2)c1OC` [Example 411] to `[2H]C([2H])([2H])NC(=O)c1nnc(NC(=O)C2CC2)cc1Nc1cccc(-c2noc(C(=O)NCCOC)n2)c1OC` [Example 19], the IC50 falls from 1800 nM to 250 nM (7.2-fold). The second is the more potent here.

First: [2H]C([2H])([2H])NC(=O)c1nnc(NC(=O)C2CC2)cc1Nc1cccc(-n2cc(CO)nn2)c1OC [Example 3]
Second: [2H]C([2H])([2H])NC(=O)c1nnc(NC(=O)C2CC2)cc1Nc1cccc(-n2cc(CNC)nn2)c1OC [Example 5]
The IC50 of the first is 3.4-fold lower: 980 nM for the first, 3300 nM for the second. The first is the more potent here.

`[2H]C([2H])([2H])NC(=O)c1nnc(NC(=O)C2CC2)cc1Nc1cccc(-c2nc(C)c(C(=O)NCC)s2)c1OC` [Example 360] and `[2H]C([2H])([2H])NC(=O)c1nnc(NC(=O)C2CC2)cc1Nc1cccc(-c2nc(C)c(C(=O)N3CCNC(=O)C3)s2)c1OC` [Example 363] are within 1.5-fold of each other in IC50: 270 nM for the first, 240 nM for the second.

Going from `[2H]C([2H])([2H])NC(=O)c1cnc(NC(=O)C2CC2)cc1Nc1cccc(-c2cnn(CCNC(C)=O)n2)c1OC` [Example 439] to `[2H]C([2H])([2H])NC(=O)c1cnc(NC(=O)C2CC2)cc1Nc1cccc(-c2cnn(CCNC(=O)C(C)(C)O)n2)c1OC` [Example 443], the IC50 falls from 440 nM to 270 nM (1.6-fold).

Going from `COc1c(Nc2cc(NC(=O)C3CC3)nnc2C(N)=O)cccc1-c1noc(CNS(=O)(=O)C(C)C)n1` [Example 50] to `COc1c(Nc2cc(NC(=O)C3CC3)nnc2C(N)=O)cccc1-c1noc(CS(C)(=O)=O)n1` [Example 64], the IC50 rises from 70 nM to 110 nM (1.6-fold). The first is the more potent here.

Going from `[2H]C([2H])([2H])NC(=O)c1nnc(NC(=O)C2CC2)cc1Nc1cccc(-c2ncc(C(=O)NCCCN(CC)CC)s2)c1OC` [Example 335] to `[2H]C([2H])([2H])NC(=O)c1nnc(NC(=O)C2CC2)cc1Nc1cccc(-c2ncc(C(=O)NCCNC(C)=O)s2)c1OC` [Example 304], the IC50 rises from 50 nM to 130 nM (2.6-fold).

First: [2H]C([2H])([2H])NC(=O)c1nnc(NC(=O)C2CC2)cc1Nc1cccc(-c2noc(CN3CCCCS3(=O)=O)n2)c1OC [Example 12]
Second: [2H]C([2H])([2H])NC(=O)c1nnc(NC(=O)C2CC2)cc1Nc1cccc(-c2noc(CN3CCN(C(=O)OC)CC3)n2)c1OC [Example 14]
The IC50 of the first is 4.5-fold lower: 11 nM for the first, 50 nM for the second.

First: [2H]C([2H])([2H])NC(=O)c1cnc(NC(=O)C2CC2)cc1Nc1cccc(-c2noc(CN3CCN(C(=O)OC)CC3)n2)c1OC [Example 92]
Second: [2H]C([2H])([2H])NC(=O)c1nnc(NC(=O)C2CC2)cc1Nc1cccc(-c2nc(CN3CCN(C(=O)OC)CC3)no2)c1OC [Example 138]
The IC50 of the first is 6-fold lower: 30 nM for the first, 180 nM for the second.

Going from `[2H]C([2H])([2H])NC(=O)c1cnc(NC(=O)C2CC2)cc1Nc1cccc(-c2noc(COCC)n2)c1OC` [Example 91] to `[2H]C([2H])([2H])NC(=O)c1cnc(NC(=O)CC2CC2)cc1Nc1cccc(-c2noc(COC)n2)c1OC` [Example 86], the IC50 rises from 50 nM to 300 nM (6-fold). The first is the more potent here.

Compared with `COc1c(Nc2cc(NC(=O)C3CC3)ncc2C#N)cccc1-c1nc(CN2CCN(S(C)(=O)=O)CC2)no1` [Example 578], `[2H]C([2H])([2H])NC(=O)c1cnc(NC(=O)C2CC2)cc1Nc1cccc(-c2nc(C(C)N3CCN(S(C)(=O)=O)CC3)no2)c1OC` (stereo not shown) [Example 223] is 6.3-fold lower in IC50: 4340 nM for the first, 690 nM for the second.

`[2H]C([2H])([2H])NC(=O)c1nnc(NC(=O)C2CC2)cc1Nc1cccc(-c2nc(CN3CCOCC3)no2)c1OC` [Example 124] and `[2H]C([2H])([2H])NC(=O)c1nnc(NC(=O)C2CC2)cc1Nc1cccc(-c2nc(CN3CCN(C(=O)C4CC4)CC3)no2)c1OC` [Example 132] are within 1.5-fold of each other in IC50: 210 nM for the first, 300 nM for the second.

First: [2H]C([2H])([2H])NC(=O)c1nnc(NC(=O)C2CC2)cc1Nc1cccc(-c2noc(CCC(=O)N3CCOCC3)n2)c1OC [Example 25]
Second: [2H]C([2H])([2H])NC(=O)c1nnc(NC(=O)C2CC2)cc1Nc1cccc(-c2noc([C@H](C)O)n2)c1OC [Example 84]
The IC50 of the first is 3.3-fold higher: 430 nM for the first, 130 nM for the second.

`[2H]C([2H])([2H])NC(=O)c1nnc(NC(=O)C2CC2)cc1Nc1cccc(-c2cc(C(=O)NCCCN(C)C)n(C)n2)c1OC` [Example 537] and `[2H]C([2H])([2H])NC(=O)c1nnc(NC(=O)C2CC2)cc1Nc1cccc(-c2cc(C(=O)N(C)CCN(C)C)n(C)n2)c1OC` [Example 526] are within 1.5-fold of each other in IC50: 700 nM for the first, 520 nM for the second.

`[2H]C([2H])([2H])NC(=O)c1nnc(NC(=O)C2CC2)cc1Nc1cccc(-c2cnn(CCNC(C)=O)n2)c1OC` [Example 432] and `[2H]C([2H])([2H])NC(=O)c1nnc(NC(=O)C2CC2)cc1Nc1cccc(-c2ccn(CCNC(=O)CC#N)n2)c1OC` [Example 470] are within 1.5-fold of each other in IC50: 300 nM for the first, 340 nM for the second.

Compared with `[2H]C([2H])([2H])NC(=O)c1nnc(NC(=O)C2CC2)cc1Nc1cc(F)cc(-c2cc(C(=O)N3CCc4ccccc4C3)n(C)n2)c1OC` [Example 512], `[2H]C([2H])([2H])NC(=O)c1nnc(NC(=O)C2CC2)cc1Nc1cc(F)cc(-c2cc(C(=O)N3CCOCC3)n(C)n2)c1OC` [Example 485] is 20-fold lower in IC50: 2560 nM for the first, 130 nM for the second. The second is the more potent here.

Compared with `[2H]C([2H])([2H])NC(=O)c1nnc(NC(=O)C2CC2)cc1Nc1cccc(-c2nc(CC(=O)NCCO)no2)c1OC` [Example 177], `[2H]C([2H])([2H])NC(=O)c1nnc(NC(=O)C2CC2)cc1Nc1cccc(-c2nc(CNC(=O)CNC(=O)OC(C)(C)C)no2)c1OC` [Example 157] is higher in IC50: 1030 nM for the first, > 10000 nM for the second. The first is the more potent here.

`[2H]C([2H])([2H])NC(=O)c1nnc(NC(=O)C2CC2)cc1Nc1cccc(-c2nc(CN3CCN(C(=O)OC(C)(C)C)CC3)no2)c1OC` [Example 135] and `[2H]C([2H])([2H])NC(=O)c1nnc(NC(=O)C2CC2)cc1Nc1cccc(-c2nc(CNC(=O)CN3CCN(C)CC3)no2)c1OC` [Example 160] are within 1.5-fold of each other in IC50: 2010 nM for the first, 1790 nM for the second.

Compared with `[2H]C([2H])([2H])NC(=O)c1nnc(NC(=O)C2CC2)cc1Nc1cccc(-c2nc(CCOC(C)(C)C)no2)c1OC` [Example 226], `[2H]C([2H])([2H])NC(=O)c1nnc(NC(=O)C2CC2)cc1Nc1cccc(-c2noc(C(C)(C)O)n2)c1OC` [Example 73] is 4.1-fold lower in IC50: 1160 nM for the first, 280 nM for the second.

Going from `[2H]C([2H])([2H])NC(=O)c1nnc(NC(=O)C2CC2)cc1Nc1cccc(-c2ncc(C(=O)N3CCNC(=O)C3C)s2)c1OC` (stereo not shown) [Example 336] to `[2H]C([2H])([2H])NC(=O)c1nnc(NC(=O)C2CC2)cc1Nc1cccc(-c2ncc(C(=O)N3CC(C)(C)C3)s2)c1OC` [Example 320], the IC50 falls from 260 nM to 50 nM (5.2-fold). The second is the more potent here.

Compared with `[2H]C([2H])([2H])NC(=O)c1nnc(NC(=O)C2CC2)cc1Nc1cccc(-c2ncc(C(=O)NC3CCC(N(CC)CC)CC3)s2)c1OC` (stereo not shown) [Example 319], `[2H]C([2H])([2H])NC(=O)c1nnc(NC(=O)C2CC2)cc1Nc1cccc(-c2ncc(CNC(=O)CC)s2)c1OC` [Example 262] is 90-fold higher in IC50: 30 nM for the first, 2690 nM for the second.

First: [2H]C([2H])([2H])NC(=O)c1nnc(NC(=O)C2CC2)cc1Nc1cc(F)cc(-c2cc(C(=O)N(C)CCN(C)C)n(C)n2)c1OC [Example 514]
Second: [2H]C([2H])([2H])NC(=O)c1nnc(NC(=O)C2CC2)cc1Nc1cc(F)cc(-c2cc(C(=O)N(C)C)n(C)n2)c1OC [Example 495]
The IC50 of the first is 14-fold higher: 870 nM for the first, 60 nM for the second. The second is the more potent here.

Going from `[2H]C([2H])([2H])NC(=O)c1nnc(NC(=O)C2CC2)cc1Nc1cccc(-c2nc(C)c(C(=O)N3CCC(CCN4CCCC4)CC3)s2)c1OC` [Example 371] to `[2H]C([2H])([2H])NC(=O)c1nnc(NC(=O)C2CC2)cc1Nc1cccc(-c2ncc(C(=O)N3CCC(N4CCN(CCO)CC4)CC3)s2)c1OC` [Example 342], the IC50 falls from 310 nM to 80 nM (3.9-fold). The second is the more potent here.

First: [2H]C([2H])([2H])NC(=O)c1nnc(NC(=O)C2CC2)cc1Nc1cccc(-c2cc(C(=O)N3CCC(N(C)C)CC3)n(C)n2)c1OC [Example 529]
Second: [2H]C([2H])([2H])NC(=O)c1nnc(NC(=O)C2CC2)cc1Nc1cccc(-c2cc(C(=O)NC(C)C)n(C)n2)c1OC [Example 535]
The IC50 of the first is 7.5-fold lower: 200 nM for the first, 1500 nM for the second. The first is the more potent here.

Compared with `COc1c(Nc2cc(NC(=O)C3CC3)nnc2C(N)=O)cccc1-c1ncc(C(=O)N2CCOCC2)s1` [Example 245], `COc1c(Nc2cc(NC(=O)C3CC3)nnc2C(N)=O)cccc1-c1ncc(C(=O)N(C)C)s1` [Example 246] is 3.7-fold lower in IC50: 110 nM for the first, 30 nM for the second. The second is the more potent here.

Going from `COCCNC(=O)c1cnc(-c2cccc(Nc3cc(NC(=O)C4CC4)nnc3C(N)=O)c2OC)s1` [Example 408] to `COc1c(Nc2cc(NC(=O)C3CC3)nnc2C(N)=O)cccc1-c1noc(CCS(C)(=O)=O)n1` [Example 71], the IC50 falls from 110 nM to 25 nM (4.4-fold). The second is the more potent here.

`[2H]C([2H])([2H])NC(=O)c1nnc(Nc2cc(C)n(C)n2)cc1Nc1cc(F)cc(-c2cc(C(=O)N(C)C)n(C)n2)c1OC` [Example 548] and `[2H]C([2H])([2H])NC(=O)c1cnc(Nc2cnn(C)n2)cc1Nc1cc(F)cc(-c2cc(C(=O)N(C)C)n(C)n2)c1OC` [Example 553] are within 1.5-fold of each other in IC50: 170 nM for the first, 120 nM for the second.

Going from `[2H]C([2H])([2H])NC(=O)c1nnc(NC(=O)C2CC2)cc1Nc1cccc(-c2cnn(CCN)c2)c1OC` [Example 557] to `[2H]C([2H])([2H])NC(=O)c1nnc(NC(=O)C2CC2)cc1Nc1cc(F)cc(-c2cc(NS(C)(=O)=O)n(C)n2)c1OC` [Example 501], the IC50 rises from 720 nM to 1130 nM (1.6-fold). The first is the more potent here.

Compared with `COc1c(Nc2cc(NC(=O)C3CC3)nnc2C(N)=O)cccc1-c1noc([C@@H](C)NS(C)(=O)=O)n1` [Example 47], `COc1c(Nc2cc(N)nnc2C(N)=O)cccc1-c1noc(C(=O)NCCC2CCCN2C)n1` (stereo not shown) [Example 115] is 25-fold higher in IC50: 140 nM for the first, 3490 nM for the second.

Source: US12240840B2, “Amide-substituted heterocyclic compounds for the treatment of conditions related to the modulation of IL-12, IL-23 and/or IFN-alpha” (BRISTOL-MYERS SQUIBB COMPANY, priority 2018, dated 2025)
